The target of data set [1] is T1, ALPK1 (Homo sapiens, UniProt Q96QP1). Kind of data set: Thermal shift assay (SYPRO Orange) for binding to ALPK1. The conditions noted are these: ALPK1 7 uM. The source says: The thermal shift assay is widely used to determine the binding of a molecule to a protein of interest. The assay is based on the increase in thermal energy required for denaturation of a protein where another molecule is bound to the protein. SYPRO Orange is a fluorescent compound used in the detection of thermal shift. SYPRO Orange binds to hydrophobic surfaces of the protein, and water strongly quenches its fluorescence. When the protein unfolds, the exposed hydrophobic surfaces bind the dye, resulting in an increase in fluorescence. When another molecule is bound to the protein, an increase in the temperature required for unfolding of the protein is observed.
This assay system was used to determine whether or not chemically synthesized HBP, HMP-1bP, and H1b-ADP directly bind to ALPK1. […] Only H1b-ADP induced a shift of more than 1 degree, at each of the three highest concentrations tested, 5 uM, 25 uM, and 125 uM.

The target of data set [2] is T1, ALPK1. The data set is described as follows: Cell-free kinase assay of ALPK1 autophosphorylation (Western, anti-phospho-threonine). Format: biochemical. The conditions noted are these: ALPK1 2 nM, ATP; H1b-ADP 10, 1, 0.2 nM; HBP and HMP-1bP 1, 10, 100 nM. How it is done:
ALPK1 activation results in its autophosphorylation. Accordingly, we next asked whether the binding of H1b-ADP to ALPK1 was sufficient to induce ALPK1 autophosphorylation. Phosphorylation assays were performed according to standard protocols. Briefly, ALPK1 was incubated (2 nM, 25° C., 1 h) in assay buffer (20 al, 25 mM HEPES pH 7.5, 50 mM KCl, 0.1 mM EDTA, 0.1 mM EGTA, 2 mM DTT, 1.5 mM CaCl2, 10 mM MgCl2) with ATP and chemically synthesized HBP, HMP-1bP, or H1b-ADP followed by denaturing gel electrophoresis and Western analysis with an anti-phospho-threonine antibody (CST) to detect autophosphorylation of ALPK1. […] The range of concentrations of HBP and HMP-1bP used in this assay (1 nM, 10 nM, 100 nM) was 10-fold higher than that used for H1b-ADP.

Data set [3] addresses T1, ALPK1. Kind of data set: Cell-free kinase assay of ALPK1-dependent phosphorylation of IκB. The conditions noted are these: 2 nM ALPK1, with or without ATP, 1 hour. The format is biochemical. How it is done: We next tested whether H1b-ADP-induced autophosphorylation of ALPK1 was effective to activate NFκB using phosphorylation of IκB as a marker for this activity. Phosphorylation assays were performed according to standard protocols and phosphorylated protein was detected by gel electrophoresis and Western blotting using an antibody that detects phosphorylated IκB. Briefly, assays were performed in a 20 μl volume at 25° C. in assay buffer (25 mM HEPES pH 7.5, 50 mM KCl, 0.1 mM EDTA, 0.1 mM EGTA, 2 mM DTT, 1.5 mM CaCl2, 10 mM MgCl2) containing 2 nM ALPK1 and H1b-ADP […] with or without ATP, or either ALPK1 alone or H1b-ADP alone, both in the presence of ATP. After 1 hour of incubation, the reaction was loaded to denaturing gel for protein electrophoresis and Western was performed to detect phosphorylation of IkB using p-IkB antibody (Abcam).

The test system of data set [4] is phosphatase activity in the serum. Kind of data set: Incubation of H1b-ADP with FBS, product analysed by LC-MS. The format is in vitro ADME, bovine. The conditions noted are these: incubated with FBS, LC-MS; AMP formed. The source says:
FBS contains 110-352 U/ml alkaline phosphatase.

Data set [5] concerns mouse bone marrow-derived macrophages. The data set is described as follows: Cxcl1 mRNA expression in mouse bone marrow-derived macrophages (qPCR). The format is cell-based. The conditions noted are these: 0.4 nM or 2 nM, 2.5 hours. How it is done:
In these experiments, mouse bone marrow-derived macrophages were treated with 0.4 nM or 2 nM H1b-ADP for 2.5 hours and harvested for mRNA expression analysis of Cxcl1 by qPCR. […] Accordingly, very low doses of H1b-ADP, or an agonist thereof, may be used to enhance or potentiate an immune response in a local tissue.

Another data set concerns the target T2, TLR-9 (Homo sapiens, UniProt Q9NR96).
T2 sequence (Q9NR96 26-1032): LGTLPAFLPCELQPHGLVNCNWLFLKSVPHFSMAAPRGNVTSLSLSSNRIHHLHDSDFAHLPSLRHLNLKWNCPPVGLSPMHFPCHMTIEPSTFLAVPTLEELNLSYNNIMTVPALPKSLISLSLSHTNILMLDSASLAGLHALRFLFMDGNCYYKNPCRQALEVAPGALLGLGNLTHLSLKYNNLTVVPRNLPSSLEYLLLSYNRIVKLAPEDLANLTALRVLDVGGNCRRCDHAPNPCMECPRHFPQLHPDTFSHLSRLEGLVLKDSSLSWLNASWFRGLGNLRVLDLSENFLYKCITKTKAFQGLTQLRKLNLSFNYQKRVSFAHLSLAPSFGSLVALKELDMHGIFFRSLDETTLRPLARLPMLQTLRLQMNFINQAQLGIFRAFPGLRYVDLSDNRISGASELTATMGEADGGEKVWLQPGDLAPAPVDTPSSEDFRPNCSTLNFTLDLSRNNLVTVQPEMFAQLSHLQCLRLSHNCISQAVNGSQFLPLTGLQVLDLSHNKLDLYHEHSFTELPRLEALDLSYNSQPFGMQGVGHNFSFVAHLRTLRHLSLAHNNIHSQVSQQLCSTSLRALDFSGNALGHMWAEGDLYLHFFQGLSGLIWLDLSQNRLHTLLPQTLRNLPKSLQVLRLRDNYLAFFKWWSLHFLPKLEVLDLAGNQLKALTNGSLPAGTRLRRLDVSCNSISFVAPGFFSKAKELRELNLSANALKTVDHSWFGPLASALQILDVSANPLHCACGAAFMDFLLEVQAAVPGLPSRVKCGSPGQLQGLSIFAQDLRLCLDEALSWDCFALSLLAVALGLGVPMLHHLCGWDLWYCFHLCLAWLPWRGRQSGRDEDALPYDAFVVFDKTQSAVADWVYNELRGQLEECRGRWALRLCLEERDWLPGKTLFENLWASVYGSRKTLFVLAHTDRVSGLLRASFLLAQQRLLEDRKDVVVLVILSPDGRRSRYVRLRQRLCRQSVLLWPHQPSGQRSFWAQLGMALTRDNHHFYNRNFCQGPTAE
The conditions noted are these: US 20100016250 by Nagata et al.; cited from earlier work.

Data set [6] deals with T1, ALPK1. The data set is described as follows: IL8 secretion in HEK293 cells (IL8 ELISA) as indicator of ALPK1 activation. The conditions noted are these: cells cultured with fetal bovine, human or mouse serum. A general note: An ELISA detects its analyte on a solid surface through an enzyme-linked reagent.
Procedure: We pre-mixed H1b-ADP with phosphatase inhibitor sodium orthovanadate (Na3VO4) before incubation with FBS.
In these experiments, serial dilutions of the compounds were added to the tissue culture media of HEK293 cells with (FIG. 27B, FIG. 28B, FIG. 29B) or without (FIG. 26, FIG. 27A, FIG. 28A, FIG. 29A) 10% FBS, as indicated in the figures. After 4 hours, the cell supernatant was collected and analyzed for IL8 concentration using IL8 ELISA (BD) as an indicator of ALPK1 activation.

T1 sequence (Q96QP1 whole entry): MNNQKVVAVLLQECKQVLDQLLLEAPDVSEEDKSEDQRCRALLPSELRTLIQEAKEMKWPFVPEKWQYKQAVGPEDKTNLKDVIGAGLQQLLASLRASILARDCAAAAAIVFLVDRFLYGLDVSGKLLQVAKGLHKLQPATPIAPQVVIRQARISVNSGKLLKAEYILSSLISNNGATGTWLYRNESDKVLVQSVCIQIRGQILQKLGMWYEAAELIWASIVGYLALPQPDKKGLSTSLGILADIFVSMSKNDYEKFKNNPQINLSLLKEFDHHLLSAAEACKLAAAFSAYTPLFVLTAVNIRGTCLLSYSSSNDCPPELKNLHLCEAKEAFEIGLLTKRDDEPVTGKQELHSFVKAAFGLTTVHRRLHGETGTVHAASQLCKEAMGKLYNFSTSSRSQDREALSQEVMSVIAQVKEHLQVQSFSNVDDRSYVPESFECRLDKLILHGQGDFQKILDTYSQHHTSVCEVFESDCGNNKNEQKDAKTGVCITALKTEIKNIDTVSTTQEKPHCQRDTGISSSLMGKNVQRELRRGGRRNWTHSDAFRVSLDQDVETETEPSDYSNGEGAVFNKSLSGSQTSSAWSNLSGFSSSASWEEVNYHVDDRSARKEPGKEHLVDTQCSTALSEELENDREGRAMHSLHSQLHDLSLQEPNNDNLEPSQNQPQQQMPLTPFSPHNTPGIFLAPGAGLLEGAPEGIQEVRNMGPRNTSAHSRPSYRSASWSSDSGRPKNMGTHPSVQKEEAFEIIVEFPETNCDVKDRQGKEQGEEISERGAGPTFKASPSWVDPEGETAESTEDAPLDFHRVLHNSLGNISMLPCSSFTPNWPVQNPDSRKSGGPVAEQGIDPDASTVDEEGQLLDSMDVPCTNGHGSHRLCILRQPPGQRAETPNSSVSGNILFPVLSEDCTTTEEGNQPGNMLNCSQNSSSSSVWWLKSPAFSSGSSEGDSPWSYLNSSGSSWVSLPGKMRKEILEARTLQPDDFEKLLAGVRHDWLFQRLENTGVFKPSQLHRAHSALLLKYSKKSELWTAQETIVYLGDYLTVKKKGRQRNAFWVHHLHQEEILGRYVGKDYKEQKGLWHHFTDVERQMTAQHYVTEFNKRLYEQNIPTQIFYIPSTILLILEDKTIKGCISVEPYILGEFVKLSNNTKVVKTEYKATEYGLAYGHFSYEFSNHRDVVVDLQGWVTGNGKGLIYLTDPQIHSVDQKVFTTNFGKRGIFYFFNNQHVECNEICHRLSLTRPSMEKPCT

As for `Nc1ncnc2c1ncn2[C@@H]1O[C@H](COP(=O)(O)OP(=O)(O)O[C@@H]2O[C@H]([C@H](O)CO)[C@@H](O)[C@H](O)[C@@H]2O)[C@@H](O)[C@H]1O` [Compound H1b-ADP, D-glycero-D-manno-heptose-1β-ADP], the “thermal shift / direct binding to ALPK1” value at ALPK1 [1] (1 uM, 5 uM, 25 uM, or 125 uM) is recorded as “able to directly bind to ALPK1”. The “thermal shift of ALPK1” value at ALPK1 [1] (at 5 uM, 25 uM, and 125 uM) is “more than 1 degree”. Further, at ALPK1 [2], the “autophosphorylation of ALPK1” value is given as “detected only in the presence of H1b-ADP”. In addition, the IkB phosphorylation result on ALPK1 [3] is “detected only in the presence of both ALPK1 and H1b-ADP in the presence of ATP”. For the same molecule, the “H1b-ADP amount with increasing incubation time” value in data set [4] is listed as “declined”. In addition, in data set [5], the “Cxcl1 mRNA expression, fold change over non-treated control” value is “dose-dependent response”. Also, the TLR-9 agonist activity result at TLR-9 was “TLR-9 agonist”. In addition, the “activity to activate ALPK1 in HEK293 cells (IL8 secretion)” value at ALPK1 [6] was “greatly declined”.

The values above are taken from patent US11186606B2, “Compositions and methods of modulating the immune response by activating alpha protein kinase 1” (Shanghai Yao Yuan Biotechnology Co., Ltd., priority 2017, dated 2021).
